Results taken from PMC7822874, “Chemoprotective antimalarials identified through quantitative high-throughput screening of Plasmodium blood and liver stage parasites” (Scientific Reports, 2021).
Where two headings read alike, the source gives them in different places.

Columns and labels:
[1] = system: Plasmodium falciparum Dd2 asexual blood stage parasites; assay: microbe, parasite or virus in culture; parameters: species or system Plasmodium falciparum Dd2 in human erythrocytes; single determination (one 11-point concentration-response curve); conditions: Plasmodium falciparum, DD2, Erythrocyte, 72 h
[2] = in vitro; conditions: human
[3] = HepG2-A16-CD81EGFP cells, uninfected

| Compound | AC50 ([1]; read-out: AC50) | viability at 48 h, 1 µM [2, 3] | viability at 48 h, 3 µM [2, 3] | viability at 66 h [2, 3] | further results |
| --- | --- | --- | --- | --- | --- |
| Cc1cccn2c(=O)c3cc(C(=O)NC4CCCC4)c(=N)n(CCc4ccccc4)c3nc12 [MLS001221260-01] | 1.88 µM | 95% | 92% |  |  |
| COc1cccc(N=C(S)N2CCN(S(=O)(=O)c3ccc(F)cc3)CC2)c1 [MLS001230093-01] | 2.66 µM | 91% | 89% |  |  |
| Cc1ccc2sc(N3CCN(C(=O)c4ccc([N+](=O)[O-])o4)CC3)nc2c1C [MLS001234068-01] | 5.31 µM | 111% | 105% |  |  |
| O=C(c1ccc([N+](=O)[O-])o1)N1CCN(c2nc3c(F)cc(F)cc3s2)CC1 [MLS001234228-01] | 5.96 µM | 103% | 108% |  |  |
| CCc1cccc2sc(N3CCN(C(=O)c4ccc([N+](=O)[O-])o4)CC3)nc12 [MLS001234237-01] | 1.06 µM | 106% | 115% |  |  |
| O=C1C(c2ccccc2)=[N+](O)c2ccccc21 [MLS001241052-01] | 1.88 µM |  |  | 97.9% |  |
| CCCCCCSc1ccc([C@H]2N[C@@](Cc3ccccc3)(C(=O)OC)[C@H]3C(=O)N(C)C(=O)[C@@H]23)cc1 [MLS001361994-01] | 4.73 µM | 112% | 100% |  |  |
| COC(=O)[C@H]1[C@H]2C[C@@H]3c4[nH]c5cc(OC)ccc5c4CCN3C[C@H]2C[C@@H](OC(=O)/C=C/c2cc(OC)c(OC)c(OC)c2)[C@@H]1OC [MLS002153878-01] | 5.31 µM |  |  |  | viability at 48 h [2]: 106%; viability at 48 h, 1 µM [2]: 106% |
| COC(=O)[C@]1(C)CCC[C@@]2(C)C3CC[C@@]4(C)C[C@]3(CCC21)CC(=O)N4Cc1ccc(OC)cc1 (stereo partly shown) [MLS002207414-01] | 3.76 µM |  |  | 96.7% |  |
| Oc1ccc(Cl)cc1CNCc1ccc(C(F)(F)F)cc1 [MLS002207454-01] | 4.22 µM |  |  | 109% |  |
| Oc1ccc(Cl)cc1CNCc1cccc2ccccc12 [MLS002207460-01] | 0.841 µM | 103% | 107% |  |  |
| COc1ccc(-c2oc3ccccc3c2C#Cc2cncn2C)cc1 [MLS002402884-01] | 1.06 µM | 112% | 95% |  |  |
| N#Cc1nc(Nc2cc(F)cc(F)c2)c2ncn(CC(F)F)c2n1 [MLS002471784-01] | 4.73 µM | 97% | 87% |  |  |
| CCN1CCN(Cc2ccc(NC(=O)c3ccc(C)c(NC(=O)C(=O)c4c[nH]c5ccccc45)c3)cc2C(F)(F)F)CC1 [MLS003105967-01] | 1.5 µM |  |  | 106% |  |
| CCN1CCN(Cc2ccc(NC(=O)c3cc(NC(=O)C(=O)c4c[nH]c5ccccc45)cc(OC)c3)cc2C(F)(F)F)CC1 [MLS003105970-01] | 0.668 µM |  |  | 105% |  |
| Cc1cn(-c2cc(C(=O)Nc3ccc(C)c(NC(=O)C(=O)c4c[nH]c5ccccc45)c3)cc(C(F)(F)F)c2)cn1 [MLS003105973-01] | 2.11 µM | 112% |  |  | viability at 48 h [2, 3]: 112% |
| O=C(CC[S+](=O)([O-])c1cc(Br)cc2c1N(C(=O)C1CC1)CC2)Nc1ccc(Br)cc1F [NCGC00107188-01] |  |  |  | 94% | AC50 [1]: 3.35 µM |
| O=C(CC[S+](=O)([O-])c1cc(Br)cc2c1N(C(=O)C1CC1)CC2)Nc1ccc(C(F)(F)F)cc1 [NCGC00107224-01] |  |  |  | 97.7% | AC50 [1]: 1.33 µM |
| Cc1ccc(NC(=O)CC[S+](=O)([O-])c2cc(Br)cc3c2N(C(=O)C2CC2)CC3)cc1 [NCGC00107230-01] | 2.37 µM |  |  | 101% |  |
| CCCCN(CC)CCNC(=O)c1cc2c(-c3ccc(Cl)cc3)nn(C)c2s1 [NCGC00108995-01] | 0.668 µM | 102% | 97% |  |  |
| COCCCNc1nc2cc(OC)c(OC)cc2c2nc(-c3ccccc3)nn12 [NCGC00112853-01] | 0.237 µM | 105% | 99% |  |  |
| CCc1cccc(-n2c(=O)c3cccnc3n2CC(=O)NCc2ccc(C)cc2)c1 [NCGC00128446-01] |  |  |  |  | AC50 [1]: 1.68 µM; viability [2]: 83.3% |
| CCN(CC)CCCC(C)Nc1cc(C=Cc2ccccc2Cl)nc2cc(Cl)ccc12 (stereo not shown) [NCGC00160524-01] | 0.841 µM | 103% | 99% |  |  |
| CC(C)C(=O)OCC(=O)[C@@]12O[C@H](C3CCCCC3)O[C@@H]1C[C@H]1[C@@H]3CCC4=CC(=O)C=C[C@]4(C)[C@H]3[C@@H](O)C[C@@]12C [NCGC00167484-01] | 2.66 µM | 97% | 94% |  |  |
| CCOC(=O)c1cnc2cc(OCC(C)C)c(OCC(C)C)cc2c1O [NCGC00167562-01] | 0.944 µM | 83% | 82% |  |  |
| O=C(NCCCN1CCCC1)c1ccc2c(c1)N([S+](=O)([O-])c1ccccc1F)CC2 [NCGC00430450-01] | 9.44 µM |  |  | 97.4% |  |
| COc1ccc([S+](=O)([O-])Nc2ccc(C)n(CC(=O)Nc3ccccc3)c2=O)cc1 [NCGC00430934-01] | 2.66 µM |  |  | 103% |  |
